According to article PMC11003488 (Journal of Enzyme Inhibition and Medicinal Chemistry, 2023):

Assays:
A498 = assay: NCI-60 SRB growth inhibition, one-dose and five-dose; type: cell-based; conditions: Homo sapiens
HCT-116 = assay: as above; type: cell-based; conditions: Homo sapiens
[1] = system: NCI 60-cell line panel (full panel); assay: NCI-60 SRB growth inhibition, full panel mean / MG-MID; type: cell-based, human
KM12 = assay: NCI-60 SRB growth inhibition, one-dose and five-dose; type: cell-based; conditions: Homo sapiens
786-0 = assay: as above; type: cell-based; conditions: Homo sapiens
HL-60(TB) = assay: cells; type: cell-based; conditions: Homo sapiens
BT-549 = assay: NCI-60 SRB growth inhibition, one-dose and five-dose; type: cell-based; conditions: Homo sapiens
MALME-3M = assay: as above; type: cell-based; conditions: Homo sapiens
HS 578 T = assay: as above; type: cell-based; conditions: Homo sapiens
OVCAR-3 = assay: as above; type: cell-based; conditions: Homo sapiens
MDA-MB-468 = assay: as above; type: cell-based; conditions: Homo sapiens
TK-10 = assay: as above; type: cell-based; conditions: Homo sapiens
SK-MEL-5 = assay: as above; type: cell-based; conditions: Homo sapiens
OVCAR-4 = assay: as above; type: cell-based; conditions: Homo sapiens
CAKI-1 = assay: as above; type: cell-based; conditions: Homo sapiens
COLO 205 = assay: as above; type: cell-based; conditions: Homo sapiens
IGROV1 = assay: as above; type: cell-based; conditions: Homo sapiens
NCI/ADR-RES = assay: as above; type: cell-based; conditions: Homo sapiens
M14 = assay: as above; type: cell-based; conditions: Homo sapiens
RPMI-8226 = assay: as above; type: cell-based; conditions: Homo sapiens
OVCAR-5 = assay: as above; type: cell-based; conditions: Homo sapiens
HT29 = assay: as above; type: cell-based; conditions: Homo sapiens
U251 = assay: as above; type: cell-based; conditions: Homo sapiens
T-47D = assay: as above; type: cell-based; conditions: Homo sapiens, T47D
SR = assay: as above; type: cell-based; conditions: Homo sapiens
ACHN = assay: as above; type: cell-based; conditions: Homo sapiens
SNB-19 = assay: as above; type: cell-based; conditions: Homo sapiens
OVCAR-8 = assay: as above; type: cell-based; conditions: Homo sapiens, OVCAR-8, read-out: percent growth inhibition
NCI-H460 = assay: as above; type: cell-based; conditions: Homo sapiens
UACC-62 = assay: as above; type: cell-based; conditions: Homo sapiens
HCT-15 = assay: as above; type: cell-based; conditions: Homo sapiens
SNB-75 = assay: as above; type: cell-based; conditions: Homo sapiens
SN12C = assay: as above; type: cell-based; conditions: Homo sapiens
HOP-92 = assay: as above; type: cell-based; conditions: Homo sapiens
SF-268 = assay: as above; type: cell-based; conditions: Homo sapiens
MCF7 = assay: as above; type: cell-based; conditions: Homo sapiens
A549/ATCC = assay: as above; type: cell-based; conditions: Homo sapiens
DU-145 = assay: as above; type: cell-based; conditions: Homo sapiens
MDA-MB-435 = assay: as above; type: cell-based; conditions: Homo sapiens
SW-620 = assay: as above; type: cell-based; conditions: Homo sapiens
CCRF-CEM = assay: as above; type: cell-based; conditions: Homo sapiens
NCI-H226 = assay: as above; type: cell-based; conditions: Homo sapiens
[2] = read-out: percent growth inhibition

CC(=O)Nc1ccc(/C=C/C(=O)c2cccc(NCc3ccc(NC(C)=O)cc3)c2)cc1 [Compound 5g, (E)-N-(4–(3-(3-((4-acetamidobenzyl)amino)phenyl)-3-oxoprop-1-en-1-yl)phenyl) acetamide]
GI50 (A498; A498): 14.2 µM | inhibition at 10 µM (A498; A498, read-out: percent growth inhibition): 16.6% | GI50 (HCT-116; HCT-116, HCT-116, five-dose screening): 1.95 µM | inhibition at 10 µM (HCT-116; HCT-116, read-out: percent growth inhibition): 190% | GI50 ([1]; Homo sapiens, 60 cell, read-out: Full panel GI50 mean): 9.52 µM | Full panel Mean GI % ([1]; mean over NCI-60 panel, single dose 10 µM): 87.48% | GI50 (KM12; KM12): 13.4 µM | inhibition at 10 µM (KM12; KM12, read-out: percent growth inhibition): 163% | GI50 (786-0; 786-0): 13.7 µM | inhibition at 10 µM (786-0; 786-0, read-out: percent growth inhibition): 144% | GI50 (HL-60(TB); HL-60): 7.08 µM | inhibition at 10 µM (HL-60(TB); HL-60, read-out: percent growth inhibition): 100% | GI50 (BT-549; BT-549): 10.4 µM | inhibition at 10 µM (BT-549; BT-549, read-out: percent growth inhibition): 63.7% | GI50 (MALME-3M): 7.11 µM | inhibition at 10 µM (MALME-3M; [2]): 57.5% | GI50 (HS 578 T): 10.6 µM | inhibition at 10 µM (HS 578 T; [2]): 32% | GI50 (OVCAR-3; OVCAR-3): 6.09 µM | inhibition at 10 µM (OVCAR-3; OVCAR-3, read-out: percent growth inhibition): 118% | GI50 (MDA-MB-468; MDA-MB-468): 10 µM | inhibition at 10 µM (MDA-MB-468; MDA-MB-468, read-out: percent growth inhibition): 68.2% | GI50 (TK-10; TK-10): 13.8 µM | inhibition at 10 µM (TK-10; TK-10, read-out: percent growth inhibition): 33.2% | GI50 (SK-MEL-5; SK-MEL-5): 12 µM | inhibition at 10 µM (SK-MEL-5; SK-MEL-5, read-out: percent growth inhibition): 99.6% | GI50 (OVCAR-4; OVCAR-4): 14 µM | inhibition at 10 µM (OVCAR-4; OVCAR-4, read-out: percent growth inhibition): 38.7% | GI50 (CAKI-1; CAKI-1): 12.2 µM | inhibition at 10 µM (CAKI-1; CAKI-1, read-out: percent growth inhibition): 54.9% | GI50 (COLO 205; COLO 205): 16 µM | inhibition at 10 µM (COLO 205; COLO 205, read-out: percent growth inhibition): 30.7% | GI50 (IGROV1; IGROV-1): 5.59 µM | inhibition at 10 µM (IGROV1; IGROV-1, read-out: percent growth inhibition): 56.3% | GI50 (NCI/ADR-RES): 16.5 µM | inhibition at 10 µM (NCI/ADR-RES; [2]): 88.2% | GI50 (M14; M14): 12.6 µM | inhibition at 10 µM (M14; M14, read-out: percent growth inhibition): 77% | GI50 (RPMI-8226; RPMI-8226): 3.02 µM | inhibition at 10 µM (RPMI-8226; RPMI-8226, read-out: percent growth inhibition): 130% | GI50 (OVCAR-5; OVCAR-5): 12.3 µM | inhibition at 10 µM (OVCAR-5; OVCAR-5, read-out: percent growth inhibition): 45.2% | GI50 (HT29; HT-29): 5.75 µM | inhibition at 10 µM (HT29; HT-29, read-out: percent growth inhibition): 164% | GI50 (U251; U-251): 3.2 µM | inhibition at 10 µM (U251; U-251, read-out: percent growth inhibition): 181% | GI50 (T-47D): 7.77 µM | inhibition at 10 µM (T-47D; [2]): 46.4% | GI50 (SR): 2.43 µM | GI50 (ACHN): 5.1 µM | inhibition at 10 µM (ACHN; [2]): 105% | GI50 (SNB-19; SNB-19): 7 µM | inhibition at 10 µM (SNB-19; SNB-19, read-out: percent growth inhibition): 95.4% | inhibition at 10 µM (OVCAR-8): 129% | GI50 (NCI-H460; NCI-H460): 6.29 µM | inhibition at 10 µM (NCI-H460; NCI-H460, read-out: percent growth inhibition): 136% | GI50 (UACC-62; UACC-62): 8.03 µM | inhibition at 10 µM (UACC-62; UACC-62, read-out: percent growth inhibition): 74.2% | GI50 (HCT-15; HCT-15): 3.13 µM | inhibition at 10 µM (HCT-15; HCT-15, read-out: percent growth inhibition): 144% | GI50 (SNB-75; SNB-75): 4.87 µM | inhibition at 10 µM (SNB-75; SNB-75, read-out: percent growth inhibition): 17% | GI50 (SN12C): 4.82 µM | inhibition at 10 µM (SN12C; [2]): 87% | GI50 (HOP-92; HOP-92): 11.8 µM | inhibition at 10 µM (HOP-92; HOP-92, read-out: percent growth inhibition): 26.9% | GI50 (SF-268; SF-268): 18.4 µM | inhibition at 10 µM (SF-268; SF-268, read-out: percent growth inhibition): 78.7% | GI50 (MCF7; MCF7): 2.88 µM | inhibition at 10 µM (MCF7; MCF7, read-out: percent growth inhibition): 107% | GI50 (A549/ATCC; A549): 15.8 µM | inhibition at 10 µM (A549/ATCC; A549, read-out: percent growth inhibition): 10.9% | GI50 (DU-145; DU-145): 11.8 µM | inhibition at 10 µM (DU-145; DU-145, read-out: percent growth inhibition): 61.7% | GI50 (MDA-MB-435; MDA-MB-435): 10.3 µM | inhibition at 10 µM (MDA-MB-435; MDA-MB-435, read-out: percent growth inhibition): 39% | GI50 (SW-620; SW-620): 1.9 µM | inhibition at 10 µM (SW-620; SW-620, read-out: percent growth inhibition): 158% | GI50 (CCRF-CEM): 4.52 µM | inhibition at 10 µM (CCRF-CEM; [2]): 116% | GI50 (NCI-H226; NCI-H226): 12.9 µM | inhibition at 10 µM (NCI-H226; NCI-H226, read-out: percent growth inhibition): 126%
